Here are results for five compounds from ChEMBL document CHEMBL1201862, “PubChem BioAssay data set” (2004).

In one test the target is Phospholipase D1 (Homo sapiens, UniProt Q13393). Put plainly: PLD1 purified enzyme concentration response. [Related pubchem assays (depositor defined):AID588854]. Format: functional.
Test [1] is described as follows: cytotoxicity toward DRD oncogenic fibroblasts, dose response, cell-based, non-viral oncogenic, luminescence (AID 1934). Format: functional. Particulars: Homo sapiens.
Test [2] addresses T1, Alkaline phosphatase, tissue-nonspecific isozyme (Homo sapiens, UniProt P05186).
T1 sequence (P05186 whole entry): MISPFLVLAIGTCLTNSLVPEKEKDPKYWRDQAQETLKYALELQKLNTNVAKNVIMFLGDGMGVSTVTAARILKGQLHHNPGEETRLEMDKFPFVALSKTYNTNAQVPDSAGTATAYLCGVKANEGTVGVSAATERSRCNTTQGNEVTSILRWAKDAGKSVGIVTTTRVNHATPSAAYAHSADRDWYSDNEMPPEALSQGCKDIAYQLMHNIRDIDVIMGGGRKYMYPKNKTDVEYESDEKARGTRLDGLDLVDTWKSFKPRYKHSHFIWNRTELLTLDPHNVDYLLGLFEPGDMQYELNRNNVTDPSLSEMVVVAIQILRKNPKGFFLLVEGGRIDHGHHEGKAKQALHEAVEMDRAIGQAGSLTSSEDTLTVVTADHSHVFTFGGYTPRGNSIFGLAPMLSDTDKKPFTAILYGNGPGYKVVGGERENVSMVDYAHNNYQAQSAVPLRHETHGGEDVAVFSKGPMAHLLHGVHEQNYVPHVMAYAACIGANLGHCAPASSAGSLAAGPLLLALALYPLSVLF
Put plainly: TNAP enzyme inhibition by screening hits, dose response, selectivity assay for mouse IAP inhibitor project, biochemical, human TNAP, uHTS hits (AID 488906). Format: functional.

Test [3] concerns BJ. Put plainly: cytotoxicity toward BJ-TERT-LT-ST fibroblasts, dose response, cell-based, RAS-independent, luminescence (AID 1935).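 Further: BJ fibroblasts immortalized with TERT plus LT and ST oncogenes.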 It is filed as functional. Particulars: Homo sapiens.
Test [4] deals with BJ. Briefly: cells. Format: functional, cell-based. Particulars: Homo sapiens.
For test [5], the target named is Intestinal-type alkaline phosphatase (Mus musculus, UniProt P24822). Put plainly: PubChem AID 488785. Format: functional.
Sequence of Intestinal-type alkaline phosphatase (Mus musculus, UniProt P24822) (P24822 whole entry): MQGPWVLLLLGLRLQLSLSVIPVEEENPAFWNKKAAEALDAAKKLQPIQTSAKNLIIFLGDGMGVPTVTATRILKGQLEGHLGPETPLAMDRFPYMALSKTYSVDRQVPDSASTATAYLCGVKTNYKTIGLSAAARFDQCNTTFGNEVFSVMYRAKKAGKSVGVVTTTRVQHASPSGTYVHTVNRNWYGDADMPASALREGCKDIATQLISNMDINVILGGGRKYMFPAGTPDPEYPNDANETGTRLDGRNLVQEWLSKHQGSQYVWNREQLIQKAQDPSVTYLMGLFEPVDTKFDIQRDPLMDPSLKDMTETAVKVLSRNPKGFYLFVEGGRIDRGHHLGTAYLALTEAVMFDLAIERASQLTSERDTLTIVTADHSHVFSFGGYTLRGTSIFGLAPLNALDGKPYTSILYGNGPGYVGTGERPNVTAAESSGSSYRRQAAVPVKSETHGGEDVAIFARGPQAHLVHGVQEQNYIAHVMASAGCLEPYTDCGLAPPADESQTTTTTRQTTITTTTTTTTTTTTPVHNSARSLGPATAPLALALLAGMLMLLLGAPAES
For test [6], the target named is Intestinal-type alkaline phosphatase (Homo sapiens, UniProt P09923). Put plainly: inhibition of human intestinal alkaline phosphatase – biochemical, dose response (AID 488876). It is filed as functional.
Sequence of Intestinal-type alkaline phosphatase (Homo sapiens, UniProt P09923) (P09923 whole entry): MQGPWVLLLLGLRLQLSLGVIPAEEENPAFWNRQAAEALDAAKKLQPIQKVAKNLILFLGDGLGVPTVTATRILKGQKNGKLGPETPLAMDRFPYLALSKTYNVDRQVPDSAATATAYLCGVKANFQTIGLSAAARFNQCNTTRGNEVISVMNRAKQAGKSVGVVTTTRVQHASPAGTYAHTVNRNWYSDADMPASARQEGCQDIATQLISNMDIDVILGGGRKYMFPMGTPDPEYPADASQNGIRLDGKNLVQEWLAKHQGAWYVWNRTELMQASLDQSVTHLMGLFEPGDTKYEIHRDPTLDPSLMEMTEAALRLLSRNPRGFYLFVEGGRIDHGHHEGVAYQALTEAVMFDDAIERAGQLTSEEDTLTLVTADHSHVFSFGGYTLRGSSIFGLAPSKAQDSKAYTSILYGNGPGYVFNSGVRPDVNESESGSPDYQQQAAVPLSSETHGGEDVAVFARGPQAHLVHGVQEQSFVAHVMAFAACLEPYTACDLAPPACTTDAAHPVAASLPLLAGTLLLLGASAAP
The test system of test [7] is BJ. Put plainly: cytotoxicity toward BJ-TERT fibroblasts, dose response, cell-based, RAS-independent, luminescence (AID 1933). Format: functional. Particulars: Homo sapiens.
The subject of test [8] is HEK293. Briefly: NOD1 signaling inhibitors, primary screen, cell-based, luminescence, uHTS (AID 1578). Particulars: Homo sapiens. Format: functional.
Test [9] concerns the target Nucleotide-binding oligomerization domain-containing protein 1 (Homo sapiens, UniProt Q9Y239). Put plainly: NOD1 signaling inhibitors, SAR follow-up, revised (AID 2333). It is filed as functional.
For test [10], the target named is T2, Long-chain-fatty-acid--AMP ligase FadD28 (Mycobacterium tuberculosis, UniProt P9WQ59).
T2 sequence (P9WQ59 whole entry): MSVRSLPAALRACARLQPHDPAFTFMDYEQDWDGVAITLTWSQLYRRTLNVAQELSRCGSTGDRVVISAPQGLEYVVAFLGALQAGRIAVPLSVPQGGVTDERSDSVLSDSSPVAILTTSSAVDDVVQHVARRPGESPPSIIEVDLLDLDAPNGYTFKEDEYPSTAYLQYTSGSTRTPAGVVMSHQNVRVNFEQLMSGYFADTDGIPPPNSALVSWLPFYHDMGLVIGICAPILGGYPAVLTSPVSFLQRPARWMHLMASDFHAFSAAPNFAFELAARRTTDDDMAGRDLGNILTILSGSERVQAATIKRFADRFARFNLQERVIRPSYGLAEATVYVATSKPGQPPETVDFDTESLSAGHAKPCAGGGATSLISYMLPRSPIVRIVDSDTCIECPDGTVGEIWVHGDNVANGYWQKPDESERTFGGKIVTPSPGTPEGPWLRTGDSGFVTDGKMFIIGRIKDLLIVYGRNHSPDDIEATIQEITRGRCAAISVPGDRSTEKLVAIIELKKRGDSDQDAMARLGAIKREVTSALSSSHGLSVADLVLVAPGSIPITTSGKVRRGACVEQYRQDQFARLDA
Briefly: Fluorescence polarization aasay to screen for inhibitors that compete for the binding of FadD28 to a bisubstrate Measured in Biochemical System Using Plate Reader - 2147-01_Inhibitor_Dose_CherryPick_Activity. Format: functional, Mycobacterium tuberculosis H37Rv.

For test [11], the system named is HEK293. Briefly: NOD2 signaling inhibitors in MDP-stimulated cells, cell-based, uHTS, luminescence (AID 2001). It is filed as functional. Particulars: Homo sapiens.
A further test deals with Tumor necrosis factor (Homo sapiens, UniProt P01375). Briefly: TNFa-triggered NF-kB activation inhibitors, SAR follow-up, cell-based, revised (AID 2337). Format: functional.
The test system of test [12] is HEK293. Briefly: cells. Format: functional, cell-based. Particulars: Homo sapiens.
Test [13] concerns the target Nucleotide-binding oligomerization domain-containing protein 2 (Homo sapiens, UniProt Q9HC29). Briefly: PubChem AID 2334. Format: functional.
Test [14] deals with HEK293. Put plainly: cells. Format: functional, cell-based. Particulars: Homo sapiens. This is another data set of the same source.
Test [15] concerns HEK293. Briefly: cells. Particulars: Homo sapiens.
Test [16] concerns the target Eukaryotic translation initiation factor 4E (Mus musculus, UniProt P63073). Briefly: eIF4E–eIF4G protein interaction inhibitors, dose response, biochemical, TR-FRET (AID 855).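 Further: potency for disrupting eIF4E binding to eIF4GI seen as loss of FRET.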 Format: functional.
The target of test [17] is Mothers against decapentaplegic homolog 3 (Homo sapiens, UniProt P84022). Briefly: SMAD3 transcription factor inhibitors, dose response (AID 715). Format: functional.
Sequence of Mothers against decapentaplegic homolog 3 (P84022 whole entry): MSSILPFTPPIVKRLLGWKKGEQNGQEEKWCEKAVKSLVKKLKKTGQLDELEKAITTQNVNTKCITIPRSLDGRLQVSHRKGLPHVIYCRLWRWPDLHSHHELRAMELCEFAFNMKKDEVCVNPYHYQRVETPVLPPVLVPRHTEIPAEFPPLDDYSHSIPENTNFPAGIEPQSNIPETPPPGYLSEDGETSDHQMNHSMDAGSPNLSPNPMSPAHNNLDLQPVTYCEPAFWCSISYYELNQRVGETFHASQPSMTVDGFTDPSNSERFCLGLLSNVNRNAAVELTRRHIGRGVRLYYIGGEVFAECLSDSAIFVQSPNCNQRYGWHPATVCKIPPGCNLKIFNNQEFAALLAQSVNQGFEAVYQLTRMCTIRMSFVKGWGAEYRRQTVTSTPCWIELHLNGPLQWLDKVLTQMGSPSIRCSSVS
The next test deals with Cytochrome P450 2C9 (Homo sapiens, UniProt P11712). Particulars: Potency.
Sequence of Cytochrome P450 2C9 (P11712 whole entry): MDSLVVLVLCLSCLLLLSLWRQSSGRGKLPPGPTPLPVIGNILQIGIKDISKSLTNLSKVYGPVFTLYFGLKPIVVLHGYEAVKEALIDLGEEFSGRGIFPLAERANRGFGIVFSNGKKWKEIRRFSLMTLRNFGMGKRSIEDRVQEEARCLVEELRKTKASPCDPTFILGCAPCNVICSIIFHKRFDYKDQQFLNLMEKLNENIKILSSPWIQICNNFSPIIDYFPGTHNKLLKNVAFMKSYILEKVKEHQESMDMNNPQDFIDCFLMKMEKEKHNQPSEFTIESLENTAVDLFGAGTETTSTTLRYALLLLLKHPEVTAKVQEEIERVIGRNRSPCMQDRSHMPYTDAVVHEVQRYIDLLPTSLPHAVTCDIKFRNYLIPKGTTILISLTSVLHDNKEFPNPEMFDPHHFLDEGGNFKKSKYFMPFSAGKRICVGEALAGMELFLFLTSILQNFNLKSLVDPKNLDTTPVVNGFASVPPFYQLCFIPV
In test [18] the target is Likely tRNA 2'-phosphotransferase (Candida albicans (strain SC5314 / ATCC MYA-2876) (Yeast), UniProt Q5A7N4). Put plainly: TPT1 tRNA phosphotransferase inhibitors, dose response, biochemical, fluorescence polarization (AID 2160).
Sequence of Likely tRNA 2'-phosphotransferase (Q5A7N4 whole entry): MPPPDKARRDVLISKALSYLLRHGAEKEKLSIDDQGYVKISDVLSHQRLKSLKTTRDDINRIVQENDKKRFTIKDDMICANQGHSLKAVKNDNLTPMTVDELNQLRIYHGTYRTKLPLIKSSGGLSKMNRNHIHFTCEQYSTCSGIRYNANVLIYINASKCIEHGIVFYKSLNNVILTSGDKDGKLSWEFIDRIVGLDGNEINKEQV
Test [19] deals with Guanyl-specific ribonuclease T1 (Aspergillus oryzae (strain ATCC 42149 / RIB 40), UniProt P00651). Put plainly: RNase T1 inhibitors, dose response, counter-screen for TPT1 inhibitor project, biochemical, fluorescence polarization, 1536-well (AID 2167).
Sequence of Guanyl-specific ribonuclease T1 (P00651 whole entry): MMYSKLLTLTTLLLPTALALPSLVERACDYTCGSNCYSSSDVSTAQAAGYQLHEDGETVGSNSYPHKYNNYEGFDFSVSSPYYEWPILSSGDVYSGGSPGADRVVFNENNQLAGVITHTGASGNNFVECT
Test [20] addresses T3, Dual specificity protein phosphatase 3 (Homo sapiens, UniProt P51452). Briefly: VHR1 phosphatase inhibitors, primary screen, biochemical, absorbance, uHTS (AID 1654).
Another test deals with T4, Leucine aminopeptidase (Plasmodium falciparum 3D7, UniProt Q8IL11).
T4 sequence (Q8IL11 whole entry): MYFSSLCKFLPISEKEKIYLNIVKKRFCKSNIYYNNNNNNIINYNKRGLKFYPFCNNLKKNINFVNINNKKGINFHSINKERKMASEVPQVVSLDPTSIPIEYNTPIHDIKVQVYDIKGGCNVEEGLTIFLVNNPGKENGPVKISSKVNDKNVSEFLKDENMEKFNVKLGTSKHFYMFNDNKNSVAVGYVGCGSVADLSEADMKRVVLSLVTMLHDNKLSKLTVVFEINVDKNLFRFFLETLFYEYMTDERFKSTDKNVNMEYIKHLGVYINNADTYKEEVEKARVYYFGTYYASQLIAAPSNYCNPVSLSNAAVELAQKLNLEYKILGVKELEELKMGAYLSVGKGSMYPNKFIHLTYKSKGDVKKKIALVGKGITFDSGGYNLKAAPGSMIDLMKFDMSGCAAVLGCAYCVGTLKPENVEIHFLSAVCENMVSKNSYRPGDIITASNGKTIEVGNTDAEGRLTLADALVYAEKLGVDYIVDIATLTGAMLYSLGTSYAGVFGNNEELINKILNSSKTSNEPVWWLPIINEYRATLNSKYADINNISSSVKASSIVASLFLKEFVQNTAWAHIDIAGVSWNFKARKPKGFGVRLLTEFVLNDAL
Put plainly: P. falciparum M17LAP inhibitors, primary screen, biochemical, fluorogenic H-Leu-NHMec substrate, 1536-well (AID 1619). It is filed as functional.

Test [21] deals with T5, Dual specificity protein phosphatase 6 (Rattus norvegicus, UniProt Q64346).
T5 sequence (Q64346 whole entry): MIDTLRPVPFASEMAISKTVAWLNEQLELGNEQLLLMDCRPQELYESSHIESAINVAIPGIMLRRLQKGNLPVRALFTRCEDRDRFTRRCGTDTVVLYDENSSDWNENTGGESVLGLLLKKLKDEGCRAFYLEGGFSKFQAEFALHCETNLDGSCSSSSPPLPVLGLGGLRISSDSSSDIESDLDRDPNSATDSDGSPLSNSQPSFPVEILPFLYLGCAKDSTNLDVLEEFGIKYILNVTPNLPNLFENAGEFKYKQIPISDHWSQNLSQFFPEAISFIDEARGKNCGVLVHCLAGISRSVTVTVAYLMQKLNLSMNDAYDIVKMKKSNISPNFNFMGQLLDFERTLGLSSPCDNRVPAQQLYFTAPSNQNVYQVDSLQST
Put plainly: MKP-3 phosphatase inhibitors, primary screen, biochemical, rat enzyme, in vitro (AID 425).

The target of test [22] is Induced myeloid leukemia cell differentiation protein Mcl-1 (Homo sapiens, UniProt Q07820). It is filed as functional.
Sequence of Induced myeloid leukemia cell differentiation protein Mcl-1 (Q07820 whole entry): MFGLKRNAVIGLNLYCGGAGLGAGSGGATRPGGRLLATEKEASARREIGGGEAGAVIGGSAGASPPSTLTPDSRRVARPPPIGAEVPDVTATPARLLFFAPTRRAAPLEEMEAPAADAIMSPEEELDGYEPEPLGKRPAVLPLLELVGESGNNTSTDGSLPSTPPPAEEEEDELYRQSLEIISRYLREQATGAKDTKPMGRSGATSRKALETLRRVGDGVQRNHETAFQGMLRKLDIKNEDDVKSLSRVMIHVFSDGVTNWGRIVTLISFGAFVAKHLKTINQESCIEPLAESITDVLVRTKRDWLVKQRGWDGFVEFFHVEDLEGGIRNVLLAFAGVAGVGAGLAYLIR
For test [23], the target named is T3, Dual specificity protein phosphatase 3. Put plainly: VHR1 phosphatase inhibitors, biochemical (AID 1878).
In test [24] the target is T6, Heat shock 70 kDa protein 1A (Homo sapiens, UniProt P0DMV8). Put plainly: Hsp70 inhibitors, SAR follow-up, biochemical, fluorescence polarization (AID 1072).
T6 sequence (P0DMV8 whole entry): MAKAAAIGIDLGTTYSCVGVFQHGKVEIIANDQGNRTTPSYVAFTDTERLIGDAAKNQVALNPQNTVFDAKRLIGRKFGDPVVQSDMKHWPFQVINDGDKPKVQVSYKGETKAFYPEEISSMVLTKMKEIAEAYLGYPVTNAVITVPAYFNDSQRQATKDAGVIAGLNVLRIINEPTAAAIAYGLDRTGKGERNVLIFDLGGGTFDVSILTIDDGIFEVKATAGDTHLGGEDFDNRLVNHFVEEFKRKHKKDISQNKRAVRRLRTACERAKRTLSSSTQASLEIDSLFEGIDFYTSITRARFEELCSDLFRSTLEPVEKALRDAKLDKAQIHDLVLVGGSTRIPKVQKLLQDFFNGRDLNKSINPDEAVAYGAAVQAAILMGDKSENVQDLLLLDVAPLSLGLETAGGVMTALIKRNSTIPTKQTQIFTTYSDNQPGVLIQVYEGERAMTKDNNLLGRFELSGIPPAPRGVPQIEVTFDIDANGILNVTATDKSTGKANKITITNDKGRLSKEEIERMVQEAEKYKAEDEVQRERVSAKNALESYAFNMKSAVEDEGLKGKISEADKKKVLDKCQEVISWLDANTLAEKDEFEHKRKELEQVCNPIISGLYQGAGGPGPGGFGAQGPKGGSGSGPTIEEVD
Test [25] concerns the target T6, Heat shock 70 kDa protein 1A. Put plainly: Hsp70 inhibitors, probe displacement, primary screen, biochemical, fluorescence polarization (AID 583).
The target is the same in test [26]. Briefly: Hsp70 inhibitors, biochemical, TR-FRET (AID 786).
The target of test [27] is G-protein coupled receptor 55 (Homo sapiens, UniProt Q9Y2T6). Briefly: GPR55 antagonists, SAR follow-up, counter-screen for GPR35 antagonist project, imaging, image-based (AID 2397). It is filed as functional.
Test [28] addresses G-protein coupled receptor 35 (Homo sapiens, UniProt Q9HC97). Put plainly: SAR Analysis for the identification of Selective Antagonists of ERK1/2 Activity in GPR35-Overexpressing U2OS Cells. [Related pubchem assays: 2079, 2058 ]. It is filed as functional, cell-based.
A short description of test [29]: cytotoxicity in HEK-293T cells, dose response, cytotoxicity control for BCR NF-kB inhibitor project, luminescence, B-cell screen hits (AID 489021).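 Further: HEK-293T cells carrying an NF-kB luciferase reporter; cells exposed to compound for about 14 hours before viability readout.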 Format: functional, cell-based.

SMILES strings stand for the structures. Calls of active or inactive are those of the source. Bounds are passed on as bounds.

T3 sequence (P51452 whole entry): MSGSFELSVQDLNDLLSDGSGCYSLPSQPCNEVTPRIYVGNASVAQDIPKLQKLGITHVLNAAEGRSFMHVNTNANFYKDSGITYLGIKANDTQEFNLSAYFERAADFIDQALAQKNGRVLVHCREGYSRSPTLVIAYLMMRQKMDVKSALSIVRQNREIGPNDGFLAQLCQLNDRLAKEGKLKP
Sequence of Nucleotide-binding oligomerization domain-containing protein 2 (Q9HC29 whole entry, the tested form may be a part): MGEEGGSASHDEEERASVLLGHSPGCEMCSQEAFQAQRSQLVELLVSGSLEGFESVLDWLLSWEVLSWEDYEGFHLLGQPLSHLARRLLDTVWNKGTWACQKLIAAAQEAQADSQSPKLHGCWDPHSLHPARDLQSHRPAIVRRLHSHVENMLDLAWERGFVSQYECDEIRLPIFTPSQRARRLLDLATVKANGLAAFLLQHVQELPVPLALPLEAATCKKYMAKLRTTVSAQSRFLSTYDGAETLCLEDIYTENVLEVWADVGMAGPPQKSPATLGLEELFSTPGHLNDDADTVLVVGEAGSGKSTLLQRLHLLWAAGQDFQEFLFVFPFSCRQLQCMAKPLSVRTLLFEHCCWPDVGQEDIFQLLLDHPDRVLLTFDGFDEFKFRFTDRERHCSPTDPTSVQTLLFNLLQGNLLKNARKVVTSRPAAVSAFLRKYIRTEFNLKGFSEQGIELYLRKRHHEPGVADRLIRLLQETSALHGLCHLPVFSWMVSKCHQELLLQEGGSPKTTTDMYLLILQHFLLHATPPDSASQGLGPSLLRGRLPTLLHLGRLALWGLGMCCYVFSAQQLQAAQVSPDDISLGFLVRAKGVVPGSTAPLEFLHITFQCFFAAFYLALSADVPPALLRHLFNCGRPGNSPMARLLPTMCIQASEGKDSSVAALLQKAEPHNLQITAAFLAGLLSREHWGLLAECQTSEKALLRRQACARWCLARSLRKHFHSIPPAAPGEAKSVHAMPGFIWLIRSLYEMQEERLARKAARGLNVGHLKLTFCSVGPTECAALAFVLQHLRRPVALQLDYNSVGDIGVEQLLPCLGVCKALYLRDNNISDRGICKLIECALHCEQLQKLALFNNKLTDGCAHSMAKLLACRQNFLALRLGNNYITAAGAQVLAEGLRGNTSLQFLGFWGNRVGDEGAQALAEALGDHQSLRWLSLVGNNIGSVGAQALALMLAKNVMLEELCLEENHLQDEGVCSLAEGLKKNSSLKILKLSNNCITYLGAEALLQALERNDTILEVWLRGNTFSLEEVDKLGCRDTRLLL
Sequence of G-protein coupled receptor 35 (Q9HC97 whole entry): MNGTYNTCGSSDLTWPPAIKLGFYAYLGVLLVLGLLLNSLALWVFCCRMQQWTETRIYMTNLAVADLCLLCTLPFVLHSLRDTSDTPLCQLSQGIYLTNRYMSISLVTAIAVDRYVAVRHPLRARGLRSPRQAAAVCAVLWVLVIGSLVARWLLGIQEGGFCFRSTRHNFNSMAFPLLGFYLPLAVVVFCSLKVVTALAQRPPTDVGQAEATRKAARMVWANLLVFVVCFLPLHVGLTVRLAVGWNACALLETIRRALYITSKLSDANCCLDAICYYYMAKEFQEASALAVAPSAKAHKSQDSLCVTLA

In the case of `O=C(NCCN1CCC2(CC1)C(=O)NCN2c1ccccc1)c1cnc2ccccc2c1`, the IC50 on Phospholipase D1 is 20 µM (active).

As for `CC(C)=CCc1c(O)c(CC=C(C)C)c2c(c1O)-c1cc(O)c(O)cc1CC2`, the EC50 in test [1] is 14.7 µM (active); in the test on BJ [3], > 75 µM (inconclusive); in the test on BJ [4], > 150 µM (not active); with BJ [7], 8.58 µM (inconclusive). Besides, the IC50 in [2] is > 100 µM (inactive); in [5], 5.45 µM (active); in test [6], > 100 µM (inactive).

As for `COc1cc(/C=C2/C(=O)NN(c3cccc(Cl)c3)C2=O)cc(Br)c1O`, in the test on HEK293 [8], the EC50 is 8.57 µM (active). For the same compound, the IC50 in test [9] was 3.49 µM (active); in the test with HEK293 [11] it was > 20 µM (inactive); at Tumor necrosis factor, > 20 µM (inactive); in the test with HEK293 [12] it was > 20 µM (inactive); in [13], > 20 µM (inactive); in the test with HEK293 [14], > 20 µM (inactive). The IC50 in the test with HEK293 [15] is > 20 µM (inactive). Further, the AC50 in [10] is > 100 µM (inactive).

As for `O=c1oc2c(O)c(O)cc3c(=O)oc4c(O)c(O)cc1c4c23` [ELLAGIC ACID], the IC50 is 47.7 µM (inactive) in test [16]; 142 nM (active) in test [17]; 541 nM (active) in test [18]; > 55.7 µM (not active) in test [19]; < 980 nM (inactive) in test [20]; 138 µM (active) on Leucine aminopeptidase. Moreover, the IC50 is 39.5 µM (active) in test [21]; > 54 µM (active) in test [22]; < 1.23 µM (inactive) in test [23]; > 100 µM (not active) in test [24]; 760 nM (active) in [25]; > 100 µM (not active) in test [26]. Moreover, at Cytochrome P450 2C9, the AC50 was 39.8 µM (inconclusive).

Consider `COc1ccc(/C=C2/SC(=S)N(CCCC(=O)Nc3ccc(O)cc3)C2=O)cc1`, for which the IC50 in test [27] was > 32 µM (inactive); in test [28], > 32 µM (not active); in test [29] it was > 80 µM (inactive).
